Calls of active or inactive are those of the source.
Tests used:
[1] = target: T1, Aryl hydrocarbon receptor (Homo sapiens, UniProt P35869); assay: Luminescence-based cell-based high throughput dose response assay for activators of the Aryl Hydrocarbon Receptor (AHR). [Related pubchem assays: 2796 (Primary screen (AHR activators in singlicate)), 2845 (Confirmation screen (AHR activators in triplicate)), 434939 (Counterscreen (PXR activators in triplicate)), 2804 (Summary (AHR activators))]; format: ADME
T1 sequence (P35869 whole entry): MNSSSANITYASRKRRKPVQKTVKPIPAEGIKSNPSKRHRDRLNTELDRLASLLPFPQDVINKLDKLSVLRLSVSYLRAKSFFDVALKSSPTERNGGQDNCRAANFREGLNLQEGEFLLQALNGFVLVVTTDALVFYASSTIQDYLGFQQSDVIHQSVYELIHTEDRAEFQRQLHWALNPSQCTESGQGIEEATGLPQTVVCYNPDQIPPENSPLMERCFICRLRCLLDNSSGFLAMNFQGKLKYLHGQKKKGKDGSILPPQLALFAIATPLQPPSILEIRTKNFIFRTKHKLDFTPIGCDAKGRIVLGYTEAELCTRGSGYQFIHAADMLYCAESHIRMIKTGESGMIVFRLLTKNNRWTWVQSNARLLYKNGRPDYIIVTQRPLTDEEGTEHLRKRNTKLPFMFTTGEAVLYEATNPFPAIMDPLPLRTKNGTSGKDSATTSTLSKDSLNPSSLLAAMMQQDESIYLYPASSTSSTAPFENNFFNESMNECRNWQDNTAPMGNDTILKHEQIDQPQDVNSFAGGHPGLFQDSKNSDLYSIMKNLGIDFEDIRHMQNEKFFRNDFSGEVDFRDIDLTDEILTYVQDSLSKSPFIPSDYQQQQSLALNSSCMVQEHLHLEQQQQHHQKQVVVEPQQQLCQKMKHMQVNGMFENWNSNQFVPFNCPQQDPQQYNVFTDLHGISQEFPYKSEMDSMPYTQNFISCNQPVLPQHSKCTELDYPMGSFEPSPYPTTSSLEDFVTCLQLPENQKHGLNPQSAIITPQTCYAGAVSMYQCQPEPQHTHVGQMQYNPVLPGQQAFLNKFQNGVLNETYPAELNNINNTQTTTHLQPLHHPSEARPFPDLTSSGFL

[2] = target: Mitogen-activated protein kinase 10 (Homo sapiens, UniProt P53779); assay: Dose response biochemical screening assay for inhibitors of c-Jun N-Terminal Kinase 3 (JNK3). [Related pubchem assays: 746 ]
Sequence of Mitogen-activated protein kinase 10 (P53779 whole entry): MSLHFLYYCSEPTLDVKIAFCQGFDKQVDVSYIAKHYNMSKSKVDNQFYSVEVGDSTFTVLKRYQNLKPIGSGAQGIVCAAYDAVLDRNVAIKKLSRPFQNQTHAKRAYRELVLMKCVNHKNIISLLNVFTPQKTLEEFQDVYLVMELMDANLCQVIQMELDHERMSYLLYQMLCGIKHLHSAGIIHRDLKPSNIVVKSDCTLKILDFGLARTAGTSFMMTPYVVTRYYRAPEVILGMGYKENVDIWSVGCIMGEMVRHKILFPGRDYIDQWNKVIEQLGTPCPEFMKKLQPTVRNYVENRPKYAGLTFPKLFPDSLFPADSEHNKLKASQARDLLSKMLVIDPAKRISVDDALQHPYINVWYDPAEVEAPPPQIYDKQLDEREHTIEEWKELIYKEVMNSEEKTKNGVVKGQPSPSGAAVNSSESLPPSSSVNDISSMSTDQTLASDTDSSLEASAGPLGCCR

[3] = target: T2, Streptokinase A (Streptococcus pyogenes serotype M1, UniProt P10520); assay: S. pyogenes streptokinase expression inhibitors, potency, dose response, plasminogen activation absorbance, OD405 (AID 1914); format: functional, Streptococcus pyogenes M1 GAS;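 further: secreted streptokinase activity via plasminogen activation per viability signal from cell pellet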
T2 sequence (P10520 whole entry): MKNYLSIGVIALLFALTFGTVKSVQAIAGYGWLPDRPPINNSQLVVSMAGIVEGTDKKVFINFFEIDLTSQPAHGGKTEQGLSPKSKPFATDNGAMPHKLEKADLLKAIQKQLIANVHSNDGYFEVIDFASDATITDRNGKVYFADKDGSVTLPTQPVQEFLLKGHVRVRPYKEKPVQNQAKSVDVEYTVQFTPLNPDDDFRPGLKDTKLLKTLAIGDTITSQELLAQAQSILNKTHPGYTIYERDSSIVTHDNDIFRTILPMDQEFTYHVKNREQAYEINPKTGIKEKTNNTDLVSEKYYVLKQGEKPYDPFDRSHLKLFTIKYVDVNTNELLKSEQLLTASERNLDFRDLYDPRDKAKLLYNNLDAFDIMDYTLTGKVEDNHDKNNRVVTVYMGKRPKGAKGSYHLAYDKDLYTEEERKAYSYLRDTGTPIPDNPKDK

[4] = target: T3, Aspartyl aminopeptidase (Plasmodium falciparum 3D7, UniProt Q8I2J3); assay: Counterscreen for inhibitors of M1 and M17 aminopeptidases: QFRET-based biochemical high throughput dose response assay for inhibitors of the Plasmodium falciparum M18 Aspartyl Aminopeptidase (PFM18AAP). [Related PubChem assays: 1619 (Screening assay (M17LAP inhibitors).), 1445 (Screening assay (M1AAP inhibitors).)]
T3 sequence (Q8I2J3 whole entry): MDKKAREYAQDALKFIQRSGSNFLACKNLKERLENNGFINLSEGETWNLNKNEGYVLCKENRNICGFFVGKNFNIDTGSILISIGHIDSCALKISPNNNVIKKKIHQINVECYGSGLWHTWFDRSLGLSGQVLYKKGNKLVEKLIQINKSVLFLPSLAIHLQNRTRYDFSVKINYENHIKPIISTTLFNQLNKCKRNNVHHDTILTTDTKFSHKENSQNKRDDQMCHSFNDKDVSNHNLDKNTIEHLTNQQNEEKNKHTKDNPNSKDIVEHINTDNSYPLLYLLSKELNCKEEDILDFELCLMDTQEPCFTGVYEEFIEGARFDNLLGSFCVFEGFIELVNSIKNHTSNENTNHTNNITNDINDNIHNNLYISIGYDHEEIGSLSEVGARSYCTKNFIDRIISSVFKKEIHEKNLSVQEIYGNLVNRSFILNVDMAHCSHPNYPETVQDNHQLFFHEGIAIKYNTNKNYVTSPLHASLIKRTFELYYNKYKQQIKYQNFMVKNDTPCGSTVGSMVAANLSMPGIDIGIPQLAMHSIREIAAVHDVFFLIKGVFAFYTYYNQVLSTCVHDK

[5] = test system: Streptococcus; assay: Group A Streptococcus viability loss, dose response, counter-screen for streptokinase expression inhibitor project, luminescence, BacTiterGlo (AID 1915); format: functional, organism-based;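 further: potency for reduction of bacterial viability or growth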
[6] = target: T4, Leucine aminopeptidase (Plasmodium falciparum 3D7, UniProt Q8IL11); assay: P. falciparum M17LAP inhibitors, primary screen, biochemical, fluorogenic H-Leu-NHMec substrate, 1536-well (AID 1619); format: functional
T4 sequence (Q8IL11 whole entry): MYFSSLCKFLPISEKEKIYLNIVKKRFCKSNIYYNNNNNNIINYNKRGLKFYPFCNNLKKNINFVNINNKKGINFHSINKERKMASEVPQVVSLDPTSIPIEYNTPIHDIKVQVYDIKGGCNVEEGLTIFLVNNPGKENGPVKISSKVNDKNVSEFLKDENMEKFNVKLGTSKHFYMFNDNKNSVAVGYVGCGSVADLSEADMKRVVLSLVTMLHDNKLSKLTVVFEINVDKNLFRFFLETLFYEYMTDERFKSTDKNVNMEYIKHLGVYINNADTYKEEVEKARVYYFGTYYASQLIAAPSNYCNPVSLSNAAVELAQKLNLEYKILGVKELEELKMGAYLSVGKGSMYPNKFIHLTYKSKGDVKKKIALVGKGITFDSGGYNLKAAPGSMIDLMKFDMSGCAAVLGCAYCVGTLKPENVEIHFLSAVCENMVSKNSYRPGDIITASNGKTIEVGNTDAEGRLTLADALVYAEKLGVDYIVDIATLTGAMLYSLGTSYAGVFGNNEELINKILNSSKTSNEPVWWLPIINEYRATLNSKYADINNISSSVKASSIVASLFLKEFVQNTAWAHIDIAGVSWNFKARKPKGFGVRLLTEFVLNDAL

[7] = target: Procathepsin L (Homo sapiens, UniProt P07711); assay: cathepsin L inhibitors, dose response, counter-screen for M1/M17 aminopeptidase inhibitor project, biochemical, QFRET, 1536-well (AID 2214)
Sequence of Procathepsin L (P07711 whole entry): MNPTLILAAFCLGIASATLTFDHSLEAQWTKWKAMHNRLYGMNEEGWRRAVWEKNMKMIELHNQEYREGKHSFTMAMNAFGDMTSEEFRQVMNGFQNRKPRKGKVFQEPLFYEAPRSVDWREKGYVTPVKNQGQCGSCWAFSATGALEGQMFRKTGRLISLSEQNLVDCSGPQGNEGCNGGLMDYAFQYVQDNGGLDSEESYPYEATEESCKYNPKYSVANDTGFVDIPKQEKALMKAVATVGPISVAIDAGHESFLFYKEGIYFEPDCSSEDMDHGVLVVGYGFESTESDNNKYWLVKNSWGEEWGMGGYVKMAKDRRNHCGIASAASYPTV

[8] = test system: Streptococcus sp. 'group A'; assay: growth inhibition of control SK(-) GAS strain, dose response, counter-screen for streptokinase expression inhibitor project, luminescence, kanamycin, BacTiterGlo, confirmation (AID 1900); format: functional, organism-based
[9] = target: T5, Aminopeptidase N (Plasmodium falciparum FcB1/Columbia, UniProt O96935); assay: P. falciparum M1AAP inhibitors, biochemical, fluorogenic H-Leu-NHMec substrate, 1536-well (AID 1445); parameters: species or system Plasmodium falciparum 3D7, 3D7
T5 sequence (O96935 whole entry): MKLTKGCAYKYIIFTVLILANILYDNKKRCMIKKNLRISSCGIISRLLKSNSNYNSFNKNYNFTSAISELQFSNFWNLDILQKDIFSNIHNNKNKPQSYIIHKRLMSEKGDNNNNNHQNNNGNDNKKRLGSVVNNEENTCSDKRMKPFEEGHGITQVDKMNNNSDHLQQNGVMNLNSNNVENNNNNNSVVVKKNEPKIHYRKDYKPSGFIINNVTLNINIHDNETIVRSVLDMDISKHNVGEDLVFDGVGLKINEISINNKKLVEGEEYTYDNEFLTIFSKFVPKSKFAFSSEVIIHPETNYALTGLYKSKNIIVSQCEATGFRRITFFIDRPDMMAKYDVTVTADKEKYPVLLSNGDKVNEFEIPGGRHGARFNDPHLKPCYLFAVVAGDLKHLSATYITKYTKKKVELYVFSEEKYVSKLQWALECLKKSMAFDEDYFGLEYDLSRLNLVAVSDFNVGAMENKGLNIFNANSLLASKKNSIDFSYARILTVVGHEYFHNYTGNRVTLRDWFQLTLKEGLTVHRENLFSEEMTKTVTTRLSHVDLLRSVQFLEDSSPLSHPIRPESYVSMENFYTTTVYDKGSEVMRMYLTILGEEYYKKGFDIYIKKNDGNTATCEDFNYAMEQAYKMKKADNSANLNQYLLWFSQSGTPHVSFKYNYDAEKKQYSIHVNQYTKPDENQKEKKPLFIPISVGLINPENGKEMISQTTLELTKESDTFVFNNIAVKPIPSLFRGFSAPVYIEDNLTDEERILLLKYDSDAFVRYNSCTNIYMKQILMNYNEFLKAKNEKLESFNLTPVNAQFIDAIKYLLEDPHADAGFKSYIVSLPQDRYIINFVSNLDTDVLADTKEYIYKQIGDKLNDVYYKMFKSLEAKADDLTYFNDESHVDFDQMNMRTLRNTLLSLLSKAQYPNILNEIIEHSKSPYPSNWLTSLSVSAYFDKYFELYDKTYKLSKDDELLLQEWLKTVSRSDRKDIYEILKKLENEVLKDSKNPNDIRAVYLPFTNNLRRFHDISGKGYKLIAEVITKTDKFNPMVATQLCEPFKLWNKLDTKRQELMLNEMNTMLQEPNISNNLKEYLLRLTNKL

[10] = inhibitors of intracellular T. cruzi replication, confirmation, NIH3T3 host cells, beta-gal luminescence (AID 2044); format: functional, cell-based;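 further: intracellular parasites grown in NIH/3T3 mouse fibroblasts as host cells; luminescent beta-galactosidase reporter signal from transgenic T. cruzi replicating inside host cells; inhibitors lower the luminescence signal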
[11] = target: Sphingosine 1-phosphate receptor 2 (Homo sapiens, UniProt O95136); assay: Dose Response Cell Based Assay for Antagonists of the S1P2 Receptor. [Related pubchem assays: 856, 736 ]; format: functional
Sequence of Sphingosine 1-phosphate receptor 2 (O95136 whole entry): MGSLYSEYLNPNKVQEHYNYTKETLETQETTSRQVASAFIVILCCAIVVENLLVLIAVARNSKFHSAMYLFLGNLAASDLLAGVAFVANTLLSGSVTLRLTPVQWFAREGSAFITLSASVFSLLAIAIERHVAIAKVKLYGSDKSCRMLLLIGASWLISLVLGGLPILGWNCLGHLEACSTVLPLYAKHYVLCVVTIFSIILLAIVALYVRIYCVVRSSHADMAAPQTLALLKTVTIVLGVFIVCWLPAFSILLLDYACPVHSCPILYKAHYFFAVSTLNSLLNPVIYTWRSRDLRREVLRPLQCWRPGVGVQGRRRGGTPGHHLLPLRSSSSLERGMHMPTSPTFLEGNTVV

[12] = cytotoxicity toward NIH3T3 fibroblasts, dose response, counter-screen, cell-based, ATP luminescence, mouse fibroblasts (AID 2010); format: functional;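 further: cells exposed to compound for about 90 hours before reading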
[13] = inhibitors of Vif binding to APOBEC3G peptide, primary screen, biochemical, TR-FRET, GST-Vif 1-94, biotin-A3G peptide, dose response retest (AID 1117319); format: functional;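 further: TR-FRET signal of purified GST-Vif binding a biotinylated A3G peptide; inhibitors lower the FRET signal by blocking Vif and A3G binding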
[14] = P. falciparum late gametocyte killing, dose response, luminescence (AID 1117278); format: functional, cell-based;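 further: gametocytes exposed to compound for 24 hours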
[15] = Jurkat T cell cytotoxicity, dose response, cytotoxicity control for P. falciparum gametocyte viability project, luminescence (AID 1117277); format: functional, cell-based;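 further: potency reflects loss of cellular ATP meaning fewer viable cells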
[16] = HCT116 cell viability decrease, GSK3B pretreatment – CellTiter-Glo, IC50, dose response (AID 1117339); format: functional; settings: HCT-116
[17] = SNU-C1 cell viability reduction, dose response, CellTiter-Glo luminescence (AID 1117323); format: functional, cell-based
[18] = cytotoxicity toward HT-29 cells – cell-based, CellTiter-Glo luminescence, IC50, dose response (AID 1117330); format: functional
[19] = cytotoxicity toward HCT116 cells – cell-based, CellTiter-Glo luminescence, IC50, dose response (AID 1117332); format: functional; settings: HCT-116
[20] = cytotoxicity toward Colo320 cells – cell-based, CellTiter-Glo luminescence, IC50, dose response (AID 1117334); format: functional; settings: COLO 320
[21] = Concentration-dependent survival of SW480 colon cancer line, luminescence detection with CellTiter-Glo, half-maximal inhibitory concentration (AID 1117338); format: functional
[22] = CellTiter-Glo luminescent dose response of DLD-1 viability loss (AID 1117352); format: functional
[23] = RKO cell viability reduction, dose response, CellTiter-Glo luminescence (AID 1117322); format: functional
[24] = cytotoxicity in HPDE-C7 cells, cell-based, fluorescence, HTS (AID 430); format: functional; settings: Homo sapiens
[25] = cytotoxicity in KRAS-transformed pancreatic duct cells, primary screen, cell-based, fluorescence, HTS (AID 431); format: functional; settings: Homo sapiens;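 further: cell line used: HPDE-C7K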

COc1ccccc1NC(=O)c1ccc(C(=O)Nc2ccccc2OC)nc1
EC50 [1]: 0.0686 µM (active)

Cc1cc(NC(=O)CSC2=Nc3ccccc3C3=NC(Cc4ccccc4)C(=O)N23)[nH]n1 (stereo not given)
IC50 [2]: 11.3 µM (not active)

Cn1c(O)cc(=O)nc1SCC(=O)Nc1cccc2ccccc12
EC50 [3]: > 150 µM (not active) | IC50 [4]: > 73.5 µM (not active) | EC50 [5]: 24.8 µM (active) | IC50 [6]: 7.59 µM (active) | IC50 [7]: > 59.6 µM (not active) | EC50 [8]: > 150 µM (not active)

CC(C)(C)c1nc2ccccc2c(=O)n1N1C(=O)c2ccccc2C1=O
IC50 [4]: > 73.5 µM (not active) | IC50 [9]: 16.1 µM (active) | IC50 [7]: > 59.6 µM (not active)

Cn1c(-c2c(N)n(CCCc3ccccc3)c3nc4ccccc4nc23)nc2ccccc21
EC50 [10]: 1.17 µM (active) | IC50 [11]: 8 µM (active) | EC50 [12]: > 30 µM (not active)

CCC(CC)c1nc2cc(OC)c(OC)cc2c(=O)o1
IC50 [13]: > 100 µM (active)

Cc1cc(C)cc(N2CC(C(=O)O)CC2=O)c1 (stereo not given)
IC50 [14]: > 109 µM (inactive) | IC50 [15]: > 83.4 µM (inactive)

CCC=CCC=CCC=CCCCCCCCC(=O)O
IC50 [16]: > 20 µM (inactive) | IC50 [17]: > 20 µM (inactive) | IC50 [18]: > 20 µM (inactive) | IC50 [19]: > 20 µM (inactive) | IC50 [20]: > 20 µM (inactive) | IC50 [21]: > 20 µM (inactive) | IC50 [22]: > 20 µM (inactive) | IC50 [23]: > 20 µM (inactive)

O=C(Cc1ccc(-c2ccccc2)cc1)NC1CCCC1
IC50 [14]: > 109 µM (inactive) | IC50 [15]: > 83.2 µM (inactive)

COC(=O)c1c(C#N)c(N)nc2c1CCCC2
IC50 [2]: 60.1 µM (not active)

O=c1c2ccccc2[nH]c(=S)n1CCN1CCC(=C(c2ccc(F)cc2)c2ccc(F)cc2)CC1 [DIACYLGLYCEROL KINASE INHIBITOR II]
EC50 [24]: 3.94 µM (active) | EC50 [25]: 4.21 µM (active)
